From patent publication US20120316200A1, “PYRIDONE DERIVATIVES” (Merck Sharp & Dohme Corp., priority 2010, published 2012) come the findings set out here.

Structures are written as SMILES. pIC50: −log10 of the molar value.

T1 sequence (Q99705 whole entry): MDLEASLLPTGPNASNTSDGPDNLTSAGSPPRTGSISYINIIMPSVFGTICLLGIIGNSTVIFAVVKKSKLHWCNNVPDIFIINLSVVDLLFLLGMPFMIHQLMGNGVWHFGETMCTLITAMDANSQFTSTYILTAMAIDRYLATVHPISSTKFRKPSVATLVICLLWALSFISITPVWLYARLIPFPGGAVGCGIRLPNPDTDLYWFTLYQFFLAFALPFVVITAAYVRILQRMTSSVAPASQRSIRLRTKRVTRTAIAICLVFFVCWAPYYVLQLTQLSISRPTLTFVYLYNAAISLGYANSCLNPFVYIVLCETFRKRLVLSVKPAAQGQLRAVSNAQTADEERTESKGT

The assay addresses T1, human MCH-1R (Homo sapiens, UniProt Q99705).
T1 construct: expressed in transfected cells; host or cells: CHO-K1 (American Type Culture Collection)
Briefly: MCH-1R binding inhibition ([125I]MCH binding to membranes of MCH-1R expression CHO-K1 cells). Particulars: 50 pM [125I]MCH, membranes of CHO-K1 cells expressing human MCH-1R, 25° C., one hour, pH 7.4; read-out: IC50 (50% inhibition concentration for specific [125I]MCH binding). As for the experimental part: A cDNA sequence encoding human MCH-1R [FEBS Letters, Vol. 398, 253 (1996); Biochimica et Biophisica Acta, Vol. 1401, 216 (1998)] was cloned to a plasmid vector pEF/myc/cyto (manufactured by Invitrogen). The obtained expression vector was transfected to a host cell CHO-K1 (American Type Culture Collection) using Lipofectamine Plus reagent (manufactured by Life Technology) to provide MCH-1R expression cells.
Membrane samples prepared from the MCH-1R expression cells were incubated with a test compound and 50 pM [^125I]MCH (manufactured by NEN) in an assay buffer (50 mM Tris buffer containing 10 mM magnesium chloride, 2 mM ethylenediamine tetraacetate, 0.01% bacitracin, and 0.2% bovine serum albumin; pH 7.4) at 25° C. for one hour, followed by filtration through a glass filter GF/C (manufactured by Wattman). The glass filter was washed with 50 mM Tris buffer (pH 7.4) containing 10 mM magnesium chloride, 2 mM ethylenediamine tetraacetate, and 0.04% Tween-20, and then the radioactivity on the glass filter was determined. Non-specific binding was measured in the presence of 1 μM human MCH, and, with respect to each test compound, 50% inhibition concentration (IC50 value) for specific [^125I]MCH binding was determined.
`Cc1cc(-n2ccc(OCc3ccc(F)cc3)cc2=O)ccc1OCC(C)(C)O` [Example 2, 4-[(4-Fluorobenzyloxy)]-1-[4-(2-hydroxy-2-methylpropoxy)-3-methylphenyl]pyridin-2(1H)-one]: the pIC50 was 7.96.
With `Cc1cc(-n2ccc(OCc3ccc(F)cc3)cc2=O)ccc1OCC1(O)CC1` [Example 5, 4-[(4-Fluorobenzyl)oxy]-1-{4-[(1-hydroxycyclopropyl)methoxy]-3-methylphenyl}pyridin-2(1H)-one] the figure was 7.96; with `CC(C)(CO)COc1ccc(-n2ccc(OCc3ccc(F)cc3)cc2=O)cc1` [Example 6, 4-[(4-Fluorobenzyl)oxy]-1-[4-(3-hydroxy-2,2-dimethylpropoxy)phenyl]pyridin-2(1H)-one], 7.20.
`CC(C)(O)c1ccc2cc(-n3ccc(OCc4ccc(F)cc4)cc3=O)ccc2n1` [Example 7, 4-(4-Fluorobenzyloxy)-1-[2-(2-hydroxypropan-2-yl)quinolin-6-yl]pyridin-2-(1H)-one]: the pIC50 was 7.42.
Next, `COc1cc(-n2ccc(OCc3ccc(F)cc3)cc2=O)ccc1OCCC(C)(C)O` [Example 8, 4-(4-Fluorobenzyloxy)-1-[4-(3-hydroxy-3-methylbutoxy)-3-methoxyphenyl]pyridin-2-(1H)-one]: 7.08.
On to `CC(C)(O)CCOc1ccc(-n2ccc(OCc3ccc(F)cc3)cc2=O)cc1` [Example 9, 4-[(4-Fluorobenzyl)oxy]-1-[4-(3-hydroxy-3-methylbutoxy)phenyl]pyridin-2 (1H)-one], for which the pIC50 is 7.64.
With `CC(C)(O)COc1ccc(-n2ccc(OCc3ccc(F)cc3)cc2=O)cc1Cl` [Example 10, 1-[3-chloro-4-(2-hydroxy-2-methylpropoxy)phenyl]-4-[(4-fluorobenzyl)oxy]pyridin-2(1H)-one] the figure was 7.96; with `CC(C)(O)COc1ccc(-n2ccc(OCc3ccc(F)cc3)cc2=O)cc1F` [Example 12, 4-[(4-fluorobenzyl)oxy]-1-[3-fluoro-4-(2-hydroxy-2-methylpropoxy)phenyl]pyridin-2(1H)-one], 7.01.
Take `Cc1cc(-n2ccc(OCc3ccc(F)cc3)cc2=O)ccc1OCC(=O)OC(C)C` [Example 18, propan-2-yl (4-{4-[(4-fluorobenzyl)oxy]-2-oxopyridin-1(2H)-yl}-2-methylphenoxy)acetate]: the pIC50 was 7.64.
On to `COC(=O)COc1ccc(-n2ccc(OCc3ccc(F)cc3)cc2=O)cc1C` [Example 19, methyl (4-{4-[(4-fluorobenzyl)oxy]-2-oxopyridin-1(2H)-yl}-2-methylphenoxy)acetate], for which the pIC50 is 7.51.
With `COC(=O)COc1ccc(-n2ccc(OCc3ccc(F)cc3)cc2=O)cc1OC` [Example 20, methyl (4-{4-[(4-fluorobenzyl)oxy]-2-oxopyridin-1(2H)-yl}-2-methoxyphenoxy)acetate] the figure was 7.21; with `COc1cc(-n2ccc(OCc3ccc(Cl)cn3)cc2=O)ccc1OC[C@H](O)C1CC1` [Example 21, 4-[(5-chloropyridin-2-yl)methoxy]-1-{4-[(2R)-2-cyclopropyl-2-hydroxyethoxy]-3-methoxyphenyl}pyridin-2(1H)-one], 7.48.
Regarding `O=c1cc(OCc2ccc(Cl)cn2)ccn1-c1ccc(OC[C@H](O)C2CC2)cc1` [Example 22], the pIC50 is 7.00.
For the compound `COc1cc(-n2ccc(OCc3ccc(Cl)cn3)cc2=O)ccc1OC[C@@H](O)C1CC1` [Example 24, 4-[(5-chloropyridin-2-yl)methoxy]-1-{4-[(2S)-2-cyclopropyl-2-hydroxyethoxy]-3-methoxyphenyl}pyridin-2(1H)-one], the pIC50 is 7.44.
Next, `O=c1cc(OCc2ccc(Cl)cn2)ccn1-c1ccc(OC[C@@H](O)C2CC2)cc1` [Example 26, 4-[(5-chloropyridin-2-yl)methoxy]-1-{4-[(2S)-2-cyclopropyl-2-hydroxyethoxy]phenyl}pyridin-2(1H)-one]: 7.04.
